Measured values from ChEMBL document CHEMBL1127323, “Isosteric phosphonate analogs of ET-16-OMe. Synthesis and biological evaluation of the enantiomers of 2'-(trimethylammonio)ethyl 4-(hexadecyloxy)-3-methoxybutanephosphonate and 2'-(trimethylammonio)ethyl 4-(hexadecylthio)-3-methoxybutanephosphonate” (J Med Chem, 1994).

Legend:
[1] = system: P388; assay: Inhibitory activity against adriamycin-sensitive and resistant cells in P388 and P388-ADR cells; type: functional, cell-based; details: Mus musculus
[2] = species: Mus musculus; assay: Inhibitory activity against murine leukemia; type: functional, organism-based
[3] = system: L1210; assay: Inhibitory activity against L1210 growth using clonogenic assay; type: functional, cell-based; details: Mus musculus

| Structure (SMILES) | IC50 [1] [nM] | IC50 [2] [nM] | IC50 [3] [nM] |
| --- | --- | --- | --- |
| CCCCCCCCCCCCCCCCOC[C@H](CCP(=O)([O-])OCC[N+](C)(C)C)OC | 2500 | 1000 | 2500 |
| CCCCCCCCCCCCCCCCSC[C@H](CCP(=O)([O-])OCC[N+](C)(C)C)OC |  | 1000 |  |
